Test results reported in patent US20220194914A1, “METHODS AND SYSTEMS FOR PRODUCTION OF FURFURAL” (SHELL OIL COMPANY, priority 2020, published 2022).
Where two headings read alike, the source gives them in different places.

Assays:
[1] = cited from earlier work; for Water solubility g/L (20° C.) / water solubility: 20° C.
[2] = octanol-water, cited from earlier work
[3] = Partitioning of components between the aqueous and non-aqueous phase of the biphasic solution (Example 4); format: physicochemical; settings: aqueous pH 1 (H2SO4), calculated ionic strength 3.0 M (Na2SO4) / MN, 1:1 volume
Source text: The non-aqueous phase solution contains MN, PBA, and furfural. The biphasic solution was mixed to allow adequate contact amongst the various components, and the biphasic solution was subsequently allowed to settle into the two phases: aqueous and non-aqueous.

Molecule | LogP ([2]; Table 2 solvents) | Water solubility g/L (20° C.) ([1]; Table 1 boronic acids) | LogP ([2]; Table 1 boronic acids) | other results
CCCCCCCCO [1-octanol] | 3.10 |  |  | Water solubility g/L (20° C.) ([1]; Table 2 solvents): 0.3 g/L
Cc1cccc(C)c1O [2,6 xylenol] | 2.40 |  |  | 
OB(O)c1ccc2ccccc2c1 [2-naphthylboronic acid] |  | 0.3 g/L | 2.82 | water solubility [1]: 0.03 wt %; LogP [2]: 2.82
CCCCc1ccc(B(O)O)cc1 [4-butylphenyl boronic acid] |  | Insoluble | 3.64 | 
CCc1ccc(B(O)O)cc1 [4-ethylphenyl boronic acid] |  |  | 2.58 | 
CC(C)(C)c1ccc(B(O)O)cc1 [4-tert-Butylphenyl boronic acid] |  | Insoluble | 3.28 | 
CCc1ccc(O)cc1 [4Et-phenol] | 2.47 |  |  | Water solubility g/L (20° C.) ([1]; Table 2 solvents): 6.1 g/L
CC(C)CB(O)O [(2-methylpropyl) boronic acid] |  | 33 g/L | 0.6 | 
c1ccc2occc2c1 [Benzofuran] | 2.67 |  |  | Water solubility g/L (20° C.) ([1]; Table 2 solvents): insoluble
Cc1cccc(O)c1 [Cresol (m)] | 1.94 |  |  | 
OB(O)C1CCCCC1 [Cyclohexyl boronic acid] |  | 25 g/L | 1.90 | 
CC(C)OC(C)C [Diisopropyl ether] | 2.03 |  |  | Water solubility g/L (20° C.) ([1]; Table 2 solvents): 1.7 g/L
CCc1ccccc1 [Ethylbenzene] | 2.96 |  |  | Water solubility g/L (20° C.) ([1]; Table 2 solvents): 0.15 g/L
O=Cc1ccco1 [Furfural] |  |  |  | mol % of the component in Non-aqueous Phase with respect to the biphasic solution [3]: (88 mol %); molar concentration in Aqueous Phase [3]: 46 mM; molar concentration in Non-aqueous Phase [3]: 352 mM; mol % of the component in Non-aqueous Phase with respect to the biphasic solution ([3]; listed as furfural): 88 mol %
OB(O)CCc1ccccc1 [Phenethyl boronic acid] |  | 1.8 g/L | 1.20 | 
O=S(=O)([O-])[O-].[Na+].[Na+] [Salt (based on 2Na), Na2SO4] |  |  |  | mol % of the component in Aqueous Phase with respect to the biphasic solution [3]: (>99 mol %); mol % of the component in Non-aqueous Phase with respect to the biphasic solution [3]: (0.2 mol %); molar concentration in Aqueous Phase [3]: 1M; molar concentration in Non-aqueous Phase [3]: 2 mM; mol % of the component in Aqueous Phase with respect to the biphasic solution ([3]; listed as Na2SO4): over 99 mol %
COc1ccccc1 [anisole] |  |  |  | Water solubility g/L (20° C.) ([1]; Table 2 solvents): 1.5 g/L
CCCCB(O)O [butylboronic acid] |  | 25 g/L | 1.43 | 
COc1ccccc1O [guaiacol] | 0.97 |  |  | Water solubility g/L ([1]; 25° C., Table 2 solvents): 18.7 (25° C.) g/L
CCCCCCC [heptane] | 4.47 |  |  | Water solubility g/L (20° C.) ([1]; Table 2 solvents): 0.003 g/L
Cc1cccc(B(O)O)c1 [m-tolylboronic acid] |  | 25 g/L | 2.05 | 
OB(O)c1cccc2ccccc12 [naphthalene-1-boronic acid] |  | 0.3 g/L |  | 
Cc1ccccc1B(O)O [o-tolylboronic acid] |  | Slightly | 2.05 | 
CCCCCCCCB(O)O [octylboronic acid] |  | Insoluble | 3.56 | water solubility [1]: water-insoluble; LogP [2]: 3.56
OB(O)c1ccccc1 [phenylboronic acid] |  | 10 g/L | 1.59 | water solubility [1]: 1 wt %; molar concentration in Aqueous Phase [3]: 129 mM; molar concentration in Non-aqueous Phase [3]: 566 mM
Methylnaphtalene [MN] |  |  |  | molar concentration in Aqueous Phase [3]: 2 mM; molar concentration in Non-aqueous Phase [3]: 7.03M
